According to patent publication US20240391936A1, “TETRAHYDROTHIENO PYRIDINE DERIVATIVES AS DDRS INHIBITORS” (CHIESI FARMACEUTICI S.P.A., priority 2021, published 2024):

Columns and labels:
DDR1 [1] = target: T1, DDR1 (Homo sapiens, UniProt Q08345); test: DDR1 binding assay (LanthaScreen Europium Kinase Binding assay); parameters: purchased Carna Biosciences; conditions: binding assay, 5 nM DDR1, 20 nM Kinase Tracer 178; Ki from IC50 by Cheng-Prusoff; read-out: Ki DDR1
Procedure, shortened: (§1)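 Compounds incubated 1 h at room temperature with 5 nM kinase, Kinase Tracer 178 (20 nM for DDR1, 10 nM for DDR2) and 2 nM Eu-anti-GST antibody in pH 7.5 HEPES/MgCl2/EGTA/BRIJ35 buffer. TR-FRET 665/615 nm ratio read after 340 nm excitation; IC50 from 4-parameter fit, converted to Ki by Cheng-Prusoff.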

DDR2 = target: T2, DDR2 (Homo sapiens, UniProt Q16832); test: DDR2 binding assay (LanthaScreen Europium Kinase Binding assay); parameters: purchased Life Technologies; conditions: binding assay, 5 nM DDR2, 10 nM Kinase Tracer 178; Ki from IC50 by Cheng-Prusoff; read-out: Ki DDR2
T2 sequence (Q16832 22-855): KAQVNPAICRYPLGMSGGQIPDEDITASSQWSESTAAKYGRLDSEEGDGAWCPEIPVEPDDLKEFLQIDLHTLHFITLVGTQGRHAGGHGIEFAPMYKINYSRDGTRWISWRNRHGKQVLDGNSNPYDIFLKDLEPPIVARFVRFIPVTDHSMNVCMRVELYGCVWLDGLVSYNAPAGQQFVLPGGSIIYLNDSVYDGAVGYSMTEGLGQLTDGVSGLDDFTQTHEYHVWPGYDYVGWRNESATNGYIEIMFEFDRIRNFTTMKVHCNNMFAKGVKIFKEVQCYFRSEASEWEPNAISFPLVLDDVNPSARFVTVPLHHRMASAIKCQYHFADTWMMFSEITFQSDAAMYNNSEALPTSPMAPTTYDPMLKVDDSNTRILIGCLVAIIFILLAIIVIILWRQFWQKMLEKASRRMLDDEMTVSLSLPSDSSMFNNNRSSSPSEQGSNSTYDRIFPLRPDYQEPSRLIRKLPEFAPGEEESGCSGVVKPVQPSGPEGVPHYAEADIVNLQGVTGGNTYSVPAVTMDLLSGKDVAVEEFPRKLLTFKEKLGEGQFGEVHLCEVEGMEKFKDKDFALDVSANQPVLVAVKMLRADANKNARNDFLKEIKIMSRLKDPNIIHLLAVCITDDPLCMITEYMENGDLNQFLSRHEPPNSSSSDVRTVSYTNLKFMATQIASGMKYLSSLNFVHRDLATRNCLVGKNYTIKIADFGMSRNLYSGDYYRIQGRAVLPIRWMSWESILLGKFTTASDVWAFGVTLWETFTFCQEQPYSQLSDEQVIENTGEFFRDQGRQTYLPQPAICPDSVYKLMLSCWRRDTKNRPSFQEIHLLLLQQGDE
Procedure, shortened: as §1

DDR1 [2] = target: T1, DDR1; test: DDR1 cell based assay (PathHunter U2OS DDR1 assay); parameters: host or cells: U2OS-DDR1 (PathHunter); conditions: U2OS-DDR1 cells, bovine Type II Collagen 20 μg/ml
Procedure, shortened: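 U2OS-DDR1 PathHunter cells preincubated 30 min with compound, then stimulated overnight at 37 °C with 20 μg/ml bovine type II collagen. Luminescent complementation signal read after 1 h detection at room temperature; normalized to vehicle (0%) and collagen-only (100%) controls, IC50 from variable-slope sigmoidal fit.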

T1 sequence (Q08345 19-913): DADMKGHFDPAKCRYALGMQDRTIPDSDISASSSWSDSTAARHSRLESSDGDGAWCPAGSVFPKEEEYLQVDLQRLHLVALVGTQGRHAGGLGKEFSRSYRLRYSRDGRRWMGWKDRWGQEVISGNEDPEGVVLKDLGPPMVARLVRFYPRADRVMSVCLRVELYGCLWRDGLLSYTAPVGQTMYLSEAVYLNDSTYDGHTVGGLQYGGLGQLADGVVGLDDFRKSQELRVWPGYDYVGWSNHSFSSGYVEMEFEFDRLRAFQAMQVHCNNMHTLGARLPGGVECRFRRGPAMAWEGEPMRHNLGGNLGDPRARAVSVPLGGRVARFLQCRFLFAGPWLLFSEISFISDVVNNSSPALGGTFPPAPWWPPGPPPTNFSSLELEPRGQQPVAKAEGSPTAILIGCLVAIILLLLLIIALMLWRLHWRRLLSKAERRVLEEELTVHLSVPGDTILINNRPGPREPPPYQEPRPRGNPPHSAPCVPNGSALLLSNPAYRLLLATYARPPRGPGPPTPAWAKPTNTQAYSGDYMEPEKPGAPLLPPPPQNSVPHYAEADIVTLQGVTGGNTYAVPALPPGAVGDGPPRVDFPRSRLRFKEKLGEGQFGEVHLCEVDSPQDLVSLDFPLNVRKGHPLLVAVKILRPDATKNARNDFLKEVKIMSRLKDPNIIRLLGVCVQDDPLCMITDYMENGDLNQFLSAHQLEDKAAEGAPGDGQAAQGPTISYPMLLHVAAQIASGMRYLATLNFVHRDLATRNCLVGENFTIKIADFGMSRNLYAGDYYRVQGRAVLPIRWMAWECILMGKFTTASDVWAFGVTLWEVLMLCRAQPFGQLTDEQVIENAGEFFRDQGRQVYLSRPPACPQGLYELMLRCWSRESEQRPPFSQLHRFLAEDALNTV

Row | Structure (SMILES) | Ki (DDR1 [1]) | Ki (DDR2) | IC50 (DDR1 [2])
1 | O=C(Nc1cc(C(F)(F)F)cnn1)c1csc2c1CCN(C(=O)c1cnc3ccccn13)C2 [Example 173, 6-(imidazo[1,2-a]pyridine-3-carbonyl)-N-(5-(trifluoromethyl)pyridazin-3-yl)-4,5,6,7-tetrahydrothieno[2,3-c]pyridine-3-carboxamide] | < 25 nM | < 25 nM | 25 to 50 nM
2 | CC(C)(C)c1cc(NC(=O)c2csc3c2CCN(C(=O)c2cnn4ccncc24)C3)no1 [Example 175, N-(5-(tert-butyl)isoxazol-3-yl)-6-(pyrazolo[1,5-a]pyrazine-3-carbonyl)-4,5,6,7-tetrahydrothieno[2,3-c]pyridine-3-carboxamide] | < 25 nM | < 25 nM | 50 to 80 nM
3 | O=C(Nc1ccc(Cl)c(C(F)(F)F)c1)c1csc2c1CCN(C(=O)c1cnn3ccncc13)C2 [Example 176, N-(4-chloro-3-(trifluoromethyl)phenyl)-6-(pyrazolo[1,5-a]pyrazine-3-carbonyl)-4,5,6,7-tetrahydrothieno[2,3-c]pyridine-3-carboxamide] | < 25 nM | < 25 nM | 50 to 80 nM
4 | CN1CCN(c2cc(NC(=O)c3csc4c3CCN(C(=O)c3cnc5ccccn35)C4)cc(C(F)(F)F)c2)CC1 [Example 177, 6-(imidazo[1,2-a]pyridine-3-carbonyl)-N-(3-(4-methylpiperazin-1-yl)-5-(trifluoromethyl)phenyl)-4,5,6,7-tetrahydrothieno [2,3-c]pyridine-3-carboxamide] | < 25 nM | < 25 nM | 50 to 80 nM
5 | CN1CCN(c2cc(NC(=O)c3csc4c3CCN(C(=O)c3cnn5ccncc35)C4)cc(C(F)(F)F)c2)CC1 [Example 178, N-(3-(4-methylpiperazin-1-yl)-5-(trifluoromethyl)phenyl)-6-(pyrazolo[1,5-a]pyrazine-3-carbonyl)-4,5,6,7-tetrahydrothieno[2,3-c]pyridine-3-carboxamide] | < 25 nM | < 25 nM | 50 to 80 nM
6 | CCC(C)(C)c1cc(NC(=O)c2csc3c2CCN(C(=O)c2cnn4ccncc24)C3)on1 [Example 179, N-(3-(tert-pentyl)isoxazol-5-yl)-6-(pyrazolo[1,5-a]pyrazine-3-carbonyl)-4,5,6,7-tetrahydrothieno[2,3-c]pyridine-3-carboxamide] | < 25 nM | < 25 nM | 50 to 80 nM
7 | O=C(Nc1ccc(CO)c(C(F)(F)F)c1)c1csc2c1CCN(C(=O)c1cnn3ccncc13)C2 [Example 180, N-(4-(hydroxymethyl)-3-(trifluoromethyl)phenyl)-6-(pyrazolo[1,5-a]pyrazine-3-carbonyl)-4,5,6,7-tetrahydrothieno[2,3-c]pyridine-3-carboxamide] | < 25 nM | < 25 nM | 25 to 50 nM

Next, values leading:

Row | Ki (DDR1 [1]) | Ki (DDR2) | IC50 (DDR1 [2]) | Structure (SMILES)
8 | < 25 nM | 25 to 50 nM | 25 to 50 nM | Cc1cccc2ncc(C(=O)N3CCc4c(C(=O)Nc5cc(CN6CC[C@@H](N(C)C)C6)cc(C(F)(F)F)c5)csc4C3)n12 [Example 162, (R)—N-(3-((3-(dimethylamino)pyrrolidin-1-yl)methyl)-5-(trifluoromethyl)phenyl)-6-(5-methylimidazo[1,2-a]pyridine-3-carbonyl)-4,5,6,7-tetrahydrothieno[2,3-c]pyridine-3-carboxamide]
9 | < 25 nM | < 25 nM | < 25 nM | Cc1n[nH]c2ncc(CN3CCc4c(C(=O)Nc5cc(OCCN6CCCC6)cc(C(F)(F)F)c5)csc4C3)cc12 [Example 163, 6-[(3-methyl-1H-pyrazolo[3,4-b]pyridin-5-yl)methyl]-N-[3-(2-pyrrolidin-1-ylethoxy)-5-(trifluoromethyl)phenyl]-5,7-dihydro-4H-thieno[2,3-c]pyridine-3-carboxamide]
10 | < 25 nM | < 25 nM | < 25 nM | O=C(Nc1cc(OCCN2CCCC2)cc(C(F)(F)F)c1)c1csc2c1CCN(Cc1cnc3[nH]ncc3c1)C2 [Example 164, 6-((1H-pyrazolo[3,4-b]pyridin-5-yl)methyl)-N-(3-(2-(pyrrolidin-1-yl)ethoxy)-5-(trifluoromethyl)phenyl)-4,5,6,7-tetrahydrothieno[2,3-c]pyridine-3-carboxamide]
11 | < 25 nM | < 25 nM | 50 to 80 nM | CN1CC2(C1)CN(c1ccc3ncc(C(=O)N4CCc5c(C(=O)Nc6cccc(C(F)(F)F)c6)csc5C4)n3c1)C2 [Example 166, 6-(6-(6-methyl-2,6-diazaspiro[3.3]heptan-2-yl)imidazo[1,2-a]pyridine-3-carbonyl)-N-(3-(trifluoromethyl)phenyl)-4,5,6,7-tetrahydrothieno[2,3-c]pyridine-3-carboxamide]
12 | < 25 nM | < 25 nM | 25 to 50 nM | CN1CC=C(c2ccc3ncc(C(=O)N4CCc5c(C(=O)Nc6cccc(C(F)(F)F)c6)csc5C4)n3c2)CC1 [Example 167, 6-(6-(1-methyl-1,2,3,6-tetrahydropyridin-4-yl)imidazo[1,2-a]pyridine-3-carbonyl)-N-(3-(trifluoromethyl)phenyl)-4,5,6,7-tetrahydrothieno[2,3-c]pyridine-3-carboxamide]
13 | < 25 nM | < 25 nM | 25 to 50 nM | CN1CCN(c2ccc3ncc(C(=O)N4CCc5c(C(=O)Nc6cc(C(C)(C)C)no6)csc5C4)n3c2)CC1 [Example 168, N-(3-(tert-butyl)isoxazol-5-yl)-6-(6-(4-methylpiperazin-1-yl)imidazo[1,2-a]pyridine-3-carbonyl)-4,5,6,7-tetrahydrothieno[2,3-c]pyridine-3-carboxamide]
14 | < 25 nM | < 25 nM | < 25 nM | Cn1nc(NC(=O)c2csc3c2CCN(Cc2cnc4[nH]ccc4c2)C3)cc1C(F)(F)F [Example 169, 6-((1H-pyrrolo[2,3-b]pyridin-5-yl)methyl)-N-(1-methyl-5-(trifluoromethyl)-1H-pyrazol-3-yl)-4,5,6,7-tetrahydrothieno[2,3-c]pyridine-3-carboxamide]
15 | < 25 nM | < 25 nM | 25 to 50 nM | O=C(Nc1cccc(C(F)(F)F)c1)c1csc2c1CCN(C(=O)c1cnc3ccc(OCCN4CCOCC4)cn13)C2 [Example 170, 6-(6-(2-morpholinoethoxy)imidazo[1,2-a]pyridine-3-carbonyl)-N-(3-(trifluoromethyl)phenyl)-4,5,6,7-tetrahydro thieno[2,3-c]pyridine-3-carboxamide]
16 | < 25 nM | < 25 nM | 50 to 80 nM | CN(C)Cc1ccc(NC(=O)c2csc3c2CCN(C(=O)c2cnn4ccncc24)C3)cc1C(F)(F)F [Example 171, N-(4-((dimethylamino)methyl)-3-(trifluoromethyl)phenyl)-6-(pyrazolo[1,5-a]pyrazine-3-carbonyl)-4,5,6,7-tetrahydro thieno[2,3-c]pyridine-3-carboxamide]
17 | < 25 nM | < 25 nM | 25 to 50 nM | O=C(Nc1cc(CN2CCOCC2)cc(C(F)(F)F)c1)c1csc2c1CCN(C(=O)c1cnn3ccncc13)C2 [Example 172, N-(3-(morpholinomethyl)-5-(trifluoromethyl)phenyl)-6-(pyrazolo[1,5-a]pyrazine-3-carbonyl)-4,5,6,7-tetrahydrothieno[2,3-c]pyridine-3-carboxamide]
